Data: US11795510B2, “Identification of epigenomic reprogramming in cancer and uses thereof” (The Johns Hopkins University, priority 2016, dated 2023)
Entries after “also recorded” stand apart in the source; their conditions may differ.

How the values were obtained:
[1] = test system: global chromatin modifications in peritoneal subclone (A38Per), normal cells (HPDE, fibroblast) and local-regional PDACs; test: Western blots of histone modifications, peritoneal subclone, normal cells and local-regional PDACs; format: cell-based, human
Description: (§1) Histones were acid extracted as described and western blots performed on 3.5 ug histones, which were checked by Ponceau stains prior to western blot to ensure equal loading. Densitometry was performed with ImageJ software. RNA was extracted with Trizol reagent (Life Technologies) and isopropanol precipitated. Genomic DNA was purified with MasterPure DNA extraction reagents (Epicenter). Immunohistochemistry, H&E staining, and immunofluorescence on formalin-fixed, paraffin-embedded (FFPE) tissue microarray sections (TMAs) were performed according to standard procedures.
RNAi experiments were performed with siRNA transfections (Oligofectamine, Life Technologies) using negative control siRNA (Sigma, SIC001) and pre-designed siRNA oligonucleotides against indicated genes in parallel (Sigma, PGD: SASI_Hs02 00334150, CDH2: SASI_Hs01_00153995, TOP2B: SASI_Hs02_00311874). siRNAs against mutant KRAS^G12V (CUACGCCAACAGCUCCAAC) (SEQ ID NO:1) were custom designed. Cells were incubated with siRNAs for 4 days after transfection and harvested. For drug treatments in 2-D, cells were grown to 70-80% confluency and treated for 3 days with 250 uM 6AN or DMSO negative control.

[2] = test system: CDH2 and TOP2B expression; test: Real-time RT-PCR of CDH2 and TOP2B; format: cell-based, human
Description: as §1

Compound: NC(=O)c1ccc(N)nc1 [6AN, 6-aminonicotinamide]
- histone modifications, western blot densitometry ([1]; normal (HPDE, fibroblast) or local-regional PDAC samples): minimal effects; also recorded: did not show such changes
- effect on global chromatin modifications (western blots) ([1]; peritoneal subclone A38Per): no effect
- CDH2 expression (RT-PCR) ([2]; distant metastatic subclone A38Lg): selectively repressed
- TOP2B expression (RT-PCR) ([2]; lung metastatic subclone): selectively repressed
